Laboratory results as given in PubChem BioAssay (NCI).
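Following 48 hours of exposure in 96-well plates, responses at five concentrations were used to interpolate endpoints linearly. GI50 = concentration required for 50% inhibition of growth. At the TGI there is no net growth.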

How the values were obtained:
Test in all cases: NCI anticancer screen, dose series, 48 h
786-0 renal = system: 786-0 renal
A498 renal = system: A498 renal
A549 NSCLC = system: A549 NSCLC
ACHN renal = system: ACHN renal
BT-549 breast = system: BT-549 breast
CAKI-1 renal = system: CAKI-1 renal
CCRF-CEM leukemia = system: CCRF-CEM leukemia
COLO 205 colon = system: COLO 205 colon
DU-145 prostate = system: DU-145 prostate
EKVX NSCLC = system: EKVX NSCLC
HCC-2998 colon = system: HCC-2998 colon
HCT-116 colon = system: HCT-116 colon
HCT-15 colon = system: HCT-15 colon
HL-60(TB) leukemia = system: HL-60(TB) leukemia
HOP-62 NSCLC = system: HOP-62 NSCLC
HOP-92 NSCLC = system: HOP-92 NSCLC
HS 578T breast = system: HS 578T breast
HT29 colon = system: HT29 colon
IGROV1 ovarian = system: IGROV1 ovarian
K-562 leukemia = system: K-562 leukemia
KM12 colon = system: KM12 colon
LOX IMVI melanoma = system: LOX IMVI melanoma
M14 melanoma = system: M14 melanoma
MALME-3M melanoma = system: MALME-3M melanoma
MCF7 breast = system: MCF7 breast
MDA-MB-231 breast = system: MDA-MB-231 breast
MDA-MB-435 = system: MDA-MB-435
MOLT-4 leukemia = system: MOLT-4 leukemia
NCI-H226 lung = system: NCI-H226 lung
NCI-H23 lung = system: NCI-H23 lung
NCI-H460 lung = system: NCI-H460 lung
NCI-H522 lung = system: NCI-H522 lung
NCI/ADR-RES ovarian = system: NCI/ADR-RES ovarian
OVCAR-3 ovarian = system: OVCAR-3 ovarian
OVCAR-4 ovarian = system: OVCAR-4 ovarian
OVCAR-5 ovarian = system: OVCAR-5 ovarian
OVCAR-8 ovarian = system: OVCAR-8 ovarian
PC-3 prostate = system: PC-3 prostate
RPMI-8226 leukemia = system: RPMI-8226 leukemia
RXF 393 renal = system: RXF 393 renal
SF-268 CNS = system: SF-268 CNS
SF-295 CNS = system: SF-295 CNS
SF-539 CNS = system: SF-539 CNS
SK-MEL-2 melanoma = system: SK-MEL-2 melanoma
SK-MEL-28 melanoma = system: SK-MEL-28 melanoma
SK-MEL-5 melanoma = system: SK-MEL-5 melanoma
SK-OV-3 ovarian = system: SK-OV-3 ovarian
SN12C renal = system: SN12C renal
SNB-19 CNS = system: SNB-19 CNS
SNB-75 CNS = system: SNB-75 CNS
SR leukemia = system: SR leukemia
SW-620 colon = system: SW-620 colon
T-47D breast = system: T-47D breast
TK-10 renal = system: TK-10 renal
U251 CNS = system: U251 CNS
UACC-257 melanoma = system: UACC-257 melanoma
UACC-62 melanoma = system: UACC-62 melanoma
UO-31 renal = system: UO-31 renal

CCC(=O)c1c(C(F)(F)F)n([O-])c2cc(F)c(F)cc2[n+]1=O
GI50 (786-0 renal): 1330 nM | TGI (786-0 renal): 2710 nM | GI50 (A498 renal): 1740 nM | TGI (A498 renal): 4920 nM | GI50 (A549 NSCLC): 2430 nM | TGI (A549 NSCLC): 6720 nM | GI50 (ACHN renal): 1250 nM | TGI (ACHN renal): 2660 nM | GI50 (BT-549 breast): 1520 nM | TGI (BT-549 breast): 3050 nM | GI50 (CAKI-1 renal): 329 nM | TGI (CAKI-1 renal): 1030 nM | GI50 (CCRF-CEM leukemia): 108 nM | TGI (CCRF-CEM leukemia): 555 nM | GI50 (COLO 205 colon): 466 nM | TGI (COLO 205 colon): 3160 nM | GI50 (DU-145 prostate): 832 nM | TGI (DU-145 prostate): 2330 nM | GI50 (EKVX NSCLC): 2190 nM | TGI (EKVX NSCLC): 4910 nM | GI50 (HCC-2998 colon): 1450 nM | TGI (HCC-2998 colon): 2900 nM | GI50 (HCT-116 colon): 366 nM | TGI (HCT-116 colon): 1510 nM | GI50 (HCT-15 colon): 1910 nM | TGI (HCT-15 colon): > 100000 nM | GI50 (HL-60(TB) leukemia): 638 nM | TGI (HL-60(TB) leukemia): 6550 nM | GI50 (HOP-62 NSCLC): 1440 nM | TGI (HOP-62 NSCLC): 2810 nM | GI50 (HOP-92 NSCLC): 762 nM | TGI (HOP-92 NSCLC): 2190 nM | GI50 (HS 578T breast): 1790 nM | TGI (HS 578T breast): 5820 nM | GI50 (HT29 colon): 228 nM | TGI (HT29 colon): 492 nM | GI50 (IGROV1 ovarian): 520 nM | TGI (IGROV1 ovarian): 1490 nM | GI50 (K-562 leukemia): 154 nM | TGI (K-562 leukemia): > 100000 nM | GI50 (KM12 colon): 1510 nM | TGI (KM12 colon): 3130 nM | GI50 (LOX IMVI melanoma): 28.4 nM | TGI (LOX IMVI melanoma): 221 nM | GI50 (M14 melanoma): 308 nM | TGI (M14 melanoma): 951 nM | GI50 (MALME-3M melanoma): 845 nM | TGI (MALME-3M melanoma): 2240 nM | GI50 (MCF7 breast): 623 nM | GI50 (MDA-MB-231 breast): 594 nM | TGI (MDA-MB-231 breast): 1490 nM | GI50 (MDA-MB-435): 159 nM | TGI (MDA-MB-435): 605 nM | GI50 (MOLT-4 leukemia): 196 nM | TGI (MOLT-4 leukemia): > 100000 nM | GI50 (NCI-H226 lung): 502 nM | TGI (NCI-H226 lung): 991 nM | GI50 (NCI-H23 lung): 807 nM | TGI (NCI-H23 lung): 2240 nM | GI50 (NCI-H460 lung): 1760 nM | TGI (NCI-H460 lung): 4890 nM | GI50 (NCI-H522 lung): 615 nM | TGI (NCI-H522 lung): 2690 nM | GI50 (NCI/ADR-RES ovarian): 822 nM | TGI (NCI/ADR-RES ovarian): 2350 nM | GI50 (OVCAR-3 ovarian): 296 nM | TGI (OVCAR-3 ovarian): 836 nM | GI50 (OVCAR-4 ovarian): 1830 nM | TGI (OVCAR-4 ovarian): 4100 nM | GI50 (OVCAR-5 ovarian): 1320 nM | TGI (OVCAR-5 ovarian): 2750 nM | GI50 (OVCAR-8 ovarian): 632 nM | TGI (OVCAR-8 ovarian): 1590 nM | GI50 (PC-3 prostate): 1540 nM | TGI (PC-3 prostate): 3060 nM | GI50 (RPMI-8226 leukemia): 394 nM | TGI (RPMI-8226 leukemia): 1600 nM | GI50 (RXF 393 renal): 1370 nM | TGI (RXF 393 renal): 3250 nM | GI50 (SF-268 CNS): 1400 nM | TGI (SF-268 CNS): 3210 nM | GI50 (SF-295 CNS): 370 nM | TGI (SF-295 CNS): 1670 nM | GI50 (SF-539 CNS): 1540 nM | TGI (SF-539 CNS): 3180 nM | GI50 (SK-MEL-2 melanoma): 663 nM | TGI (SK-MEL-2 melanoma): > 20000 nM | GI50 (SK-MEL-28 melanoma): 1320 nM | TGI (SK-MEL-28 melanoma): 2990 nM | GI50 (SK-MEL-5 melanoma): 1270 nM | TGI (SK-MEL-5 melanoma): 2740 nM | GI50 (SK-OV-3 ovarian): 1860 nM | TGI (SK-OV-3 ovarian): 3880 nM | GI50 (SN12C renal): 649 nM | TGI (SN12C renal): 2070 nM | GI50 (SNB-19 CNS): 1350 nM | TGI (SNB-19 CNS): 3910 nM | GI50 (SNB-75 CNS): 2580 nM | TGI (SNB-75 CNS): 4440 nM | GI50 (SR leukemia): 60.7 nM | TGI (SR leukemia): 263 nM | GI50 (SW-620 colon): 460 nM | TGI (SW-620 colon): 2210 nM | GI50 (T-47D breast): 570 nM | TGI (T-47D breast): 7040 nM | GI50 (TK-10 renal): 1050 nM | TGI (TK-10 renal): 2390 nM | GI50 (U251 CNS): 1430 nM | TGI (U251 CNS): 3390 nM | GI50 (UACC-257 melanoma): 1500 nM | TGI (UACC-257 melanoma): 2980 nM | GI50 (UACC-62 melanoma): 571 nM | TGI (UACC-62 melanoma): 1330 nM | GI50 (UO-31 renal): 971 nM | TGI (UO-31 renal): 3050 nM
